Here are results for 17 compounds from patent US8895551B2, “Acrylamide compounds and the use thereof” (Shionogi & Co., Ltd., priority 2009, dated 2014).

For this experiment, the target named is T1, N-type calcium channel (NTCC) (Homo sapiens, UniProt Q00975).
T1 construct: host or cells: IMR32 cells differentiated with dibutyryl cyclic AMP and bromodeoxyuridine
Put plainly: FLIPR calcium mobilization assay for N-type calcium channel. The experiment is classed as cell-based. As to conditions: N-type calcium channel (NTCC) blockers after a calcium mobilization in vitro assay; differentiated IMR32 cells. The procedure:
Cell maintenance and differentiation. Unless noted otherwise, cell culture reagents were purchased from Mediatech of Herndon, Md. IMR32 cells (American Type Culture Collection, ATCC, Manassas, Va.) were routinely cultured in growth medium consisting of minimum essential medium containing 10% fetal bovine serum (FBS, Hyclone, Logan, Utah), 100 U/mL penicillin, 100 μg/mL streptomycin, 2 mM L-glutamine, 1 mM sodium pyruvate, and 1×MEM non-essential amino acids. 80-90% confluent flasks of cells were differentiated using the following differentiation medium: Growth medium plus 1 mM dibutyryl cyclic AMP (Sigma, St. Louis, Mo.), and 2.5 μM bromodeoxyuridine (Sigma). Cells were differentiated for 8 days by replacing differentiation medium every 2-3 days.
FLIPR Calcium Mobilization Assay for N-type Calcium Channel. One day prior to performing this assay, differentiated IMR32 cells were treated with 1× CellStripper, and seeded on poly-D-lysine-coated 96-well clear-bottom black plates (Becton Dickinson, Franklin Lakes, N.J.) at 200,000 cells/well. On the day of the assay, the cell plates were washed with IMR32 buffer (127 mM NaCl, 1 mM KCl, 2 mM MgCl2, 700 μM NaH2PO4, 5 mM CaCl2, 5 mM NaHCO3, 8 mM HEPES, 10 mM glucose, pH 7.4), then pre-stimulated with KCl and loaded as follows: 0.05 mL of IMR^32 buffer, 0.05 mL of each compound tested diluted in IMR^32 buffer containing 20 μM nitrendipine (Sigma), and 0.1 mL KCl dissolved in IMR^32 buffer, plus Fluo-4 were added (3 μM final concentration, Molecular Probes, Eugene, Oreg.). Final test compound concentrations ranged from about 846 μM to about 17 μM, final nitrendipine concentration was 5 μM, and final KCl concentration was 90 mM. After 1 hour, the cells were washed twice with 0.05 mL of each compound tested in nitrendipine-containing IMR32 buffer (no KCl or Fluo-4), and then replaced with 0.1 mL of each compound tested in nitrendipine-containing IMR^32 buffer. Plates were then transferred to a Fluorimetric Imaging Plate Reader (FLIPR^96, Molecular Devices, Inc., Sunnyvale, Calif.) for assay. The FLIPR measured basal Fluo-4 fluorescence for 315 seconds (i.e., 5 minutes and 15 seconds), then added 0.1 mL KCl agonist dissolved in IMR32 buffer and measured fluorescence for another 45 seconds. Final test compound concentrations on the cells after FLIPR read ranged from about 846 μM to about 17 μM, final nitrendipine concentration was 5 μM, and final KCl concentration was 90 mM. Data were collected over the entire time course and analyzed using Excel, Graph Pad Prism (version 3.02, Graph Pad, San Diego, Calif.), or an in-house non-linear regression analysis software.

T1 sequence (Q00975 whole entry): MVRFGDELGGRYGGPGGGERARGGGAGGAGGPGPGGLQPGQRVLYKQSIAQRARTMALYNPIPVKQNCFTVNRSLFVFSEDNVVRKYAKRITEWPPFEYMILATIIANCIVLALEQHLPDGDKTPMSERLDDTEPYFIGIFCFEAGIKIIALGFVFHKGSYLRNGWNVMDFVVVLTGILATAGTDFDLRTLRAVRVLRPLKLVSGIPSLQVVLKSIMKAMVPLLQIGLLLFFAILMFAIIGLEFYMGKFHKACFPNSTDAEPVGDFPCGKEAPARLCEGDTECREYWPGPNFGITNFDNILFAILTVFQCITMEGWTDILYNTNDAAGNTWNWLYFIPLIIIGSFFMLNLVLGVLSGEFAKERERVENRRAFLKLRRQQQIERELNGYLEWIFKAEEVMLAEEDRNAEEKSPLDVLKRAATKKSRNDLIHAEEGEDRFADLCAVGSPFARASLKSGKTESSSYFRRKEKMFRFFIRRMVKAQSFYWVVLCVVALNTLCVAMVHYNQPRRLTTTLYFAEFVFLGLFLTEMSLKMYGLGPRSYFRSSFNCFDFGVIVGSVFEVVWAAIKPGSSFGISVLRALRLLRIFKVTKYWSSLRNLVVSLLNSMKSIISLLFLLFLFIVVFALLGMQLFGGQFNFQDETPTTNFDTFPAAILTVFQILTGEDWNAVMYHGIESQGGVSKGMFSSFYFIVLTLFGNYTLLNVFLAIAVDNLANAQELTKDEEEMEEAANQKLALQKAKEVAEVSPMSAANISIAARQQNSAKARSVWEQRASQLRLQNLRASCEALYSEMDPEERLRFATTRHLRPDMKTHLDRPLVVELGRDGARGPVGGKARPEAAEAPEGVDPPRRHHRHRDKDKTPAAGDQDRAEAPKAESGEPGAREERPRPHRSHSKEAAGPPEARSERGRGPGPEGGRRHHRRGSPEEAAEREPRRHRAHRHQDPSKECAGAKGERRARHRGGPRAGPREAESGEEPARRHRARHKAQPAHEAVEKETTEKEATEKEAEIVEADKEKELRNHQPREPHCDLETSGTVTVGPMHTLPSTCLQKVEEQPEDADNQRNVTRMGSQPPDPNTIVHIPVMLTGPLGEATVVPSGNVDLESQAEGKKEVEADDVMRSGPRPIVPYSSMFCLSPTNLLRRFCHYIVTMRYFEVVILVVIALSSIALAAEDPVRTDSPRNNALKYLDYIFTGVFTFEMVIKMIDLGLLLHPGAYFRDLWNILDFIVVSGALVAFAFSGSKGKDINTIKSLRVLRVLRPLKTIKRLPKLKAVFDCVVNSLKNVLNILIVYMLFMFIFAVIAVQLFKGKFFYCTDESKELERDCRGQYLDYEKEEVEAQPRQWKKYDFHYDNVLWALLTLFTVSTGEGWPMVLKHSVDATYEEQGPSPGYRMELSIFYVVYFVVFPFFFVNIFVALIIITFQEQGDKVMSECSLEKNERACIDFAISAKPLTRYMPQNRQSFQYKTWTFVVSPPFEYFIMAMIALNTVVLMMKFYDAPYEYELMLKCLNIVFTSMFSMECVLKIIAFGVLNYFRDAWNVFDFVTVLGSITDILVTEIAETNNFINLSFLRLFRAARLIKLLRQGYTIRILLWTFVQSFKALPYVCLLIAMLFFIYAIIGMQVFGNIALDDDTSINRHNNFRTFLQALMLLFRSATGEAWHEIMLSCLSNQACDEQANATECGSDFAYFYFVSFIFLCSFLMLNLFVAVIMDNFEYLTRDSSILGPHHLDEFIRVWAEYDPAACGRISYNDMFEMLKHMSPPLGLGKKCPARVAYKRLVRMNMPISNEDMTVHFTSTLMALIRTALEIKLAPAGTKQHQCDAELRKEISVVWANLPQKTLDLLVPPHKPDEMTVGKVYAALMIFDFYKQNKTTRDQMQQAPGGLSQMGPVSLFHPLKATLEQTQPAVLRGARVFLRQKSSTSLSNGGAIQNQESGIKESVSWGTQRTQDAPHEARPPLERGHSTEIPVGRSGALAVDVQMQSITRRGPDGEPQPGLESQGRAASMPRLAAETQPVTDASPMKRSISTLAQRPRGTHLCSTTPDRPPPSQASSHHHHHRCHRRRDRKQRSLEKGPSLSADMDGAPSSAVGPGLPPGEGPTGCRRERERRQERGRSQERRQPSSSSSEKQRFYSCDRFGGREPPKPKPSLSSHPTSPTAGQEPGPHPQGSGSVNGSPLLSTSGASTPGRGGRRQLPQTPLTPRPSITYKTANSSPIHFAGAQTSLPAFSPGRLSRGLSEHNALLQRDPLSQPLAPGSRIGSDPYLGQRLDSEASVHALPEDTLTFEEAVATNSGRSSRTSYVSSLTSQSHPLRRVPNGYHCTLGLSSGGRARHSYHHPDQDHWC
T1 sequence (P54289 25-956 partner limits assumed): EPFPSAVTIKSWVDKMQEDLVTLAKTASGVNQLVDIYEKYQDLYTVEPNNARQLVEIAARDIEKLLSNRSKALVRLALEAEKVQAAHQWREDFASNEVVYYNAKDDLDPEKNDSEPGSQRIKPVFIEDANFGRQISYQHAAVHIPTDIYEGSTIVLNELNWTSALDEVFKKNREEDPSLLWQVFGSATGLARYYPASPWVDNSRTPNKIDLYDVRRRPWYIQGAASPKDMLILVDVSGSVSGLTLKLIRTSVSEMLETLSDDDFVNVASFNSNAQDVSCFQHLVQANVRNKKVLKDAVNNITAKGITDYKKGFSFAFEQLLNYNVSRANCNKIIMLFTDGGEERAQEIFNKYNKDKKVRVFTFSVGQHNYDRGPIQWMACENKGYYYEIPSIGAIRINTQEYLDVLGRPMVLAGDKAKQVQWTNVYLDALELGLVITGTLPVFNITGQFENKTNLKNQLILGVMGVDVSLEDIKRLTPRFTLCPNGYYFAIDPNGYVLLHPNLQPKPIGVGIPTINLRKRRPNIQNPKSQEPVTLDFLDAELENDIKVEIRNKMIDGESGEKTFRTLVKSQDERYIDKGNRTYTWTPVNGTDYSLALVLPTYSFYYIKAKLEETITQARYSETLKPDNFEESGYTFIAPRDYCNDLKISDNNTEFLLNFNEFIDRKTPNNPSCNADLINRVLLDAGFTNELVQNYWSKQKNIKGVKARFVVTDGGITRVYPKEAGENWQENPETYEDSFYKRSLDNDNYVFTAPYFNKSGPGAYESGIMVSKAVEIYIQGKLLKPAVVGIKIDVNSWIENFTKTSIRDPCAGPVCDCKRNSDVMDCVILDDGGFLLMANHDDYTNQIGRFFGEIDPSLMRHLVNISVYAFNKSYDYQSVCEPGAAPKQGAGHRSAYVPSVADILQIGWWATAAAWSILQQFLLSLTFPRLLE
T1 sequence (P54289 957-1103 partner limits assumed): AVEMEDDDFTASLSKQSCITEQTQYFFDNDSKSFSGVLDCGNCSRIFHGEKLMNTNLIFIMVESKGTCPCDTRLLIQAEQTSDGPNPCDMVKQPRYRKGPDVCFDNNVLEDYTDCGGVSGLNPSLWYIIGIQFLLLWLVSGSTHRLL
T1 sequence (P54284 whole entry partner): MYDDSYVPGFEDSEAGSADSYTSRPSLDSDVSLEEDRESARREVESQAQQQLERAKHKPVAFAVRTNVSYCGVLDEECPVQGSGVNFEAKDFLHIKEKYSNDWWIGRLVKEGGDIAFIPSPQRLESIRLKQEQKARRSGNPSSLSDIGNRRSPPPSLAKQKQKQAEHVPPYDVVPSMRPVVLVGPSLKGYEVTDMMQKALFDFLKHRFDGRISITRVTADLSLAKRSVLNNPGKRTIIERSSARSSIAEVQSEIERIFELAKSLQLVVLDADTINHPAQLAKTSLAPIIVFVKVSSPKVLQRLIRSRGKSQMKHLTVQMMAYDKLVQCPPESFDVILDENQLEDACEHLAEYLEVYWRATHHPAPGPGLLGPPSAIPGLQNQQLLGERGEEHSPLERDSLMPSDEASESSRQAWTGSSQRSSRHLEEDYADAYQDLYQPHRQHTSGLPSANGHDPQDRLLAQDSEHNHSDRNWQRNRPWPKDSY

Regarding `O=C(C=C1CCN(S(=O)(=O)c2ccc(OC(F)(F)F)cc2)CC1)NCc1ccccc1` [Example 3, N-benzyl-2-(1-(4-(trifluoromethoxy)phenylsulfonyl)piperidin-4-ylidene)Acetamide], the IC50 was 0.598 µM.
For `O=C(C=C1CCN(S(=O)(=O)c2ccc(OC(F)(F)F)cc2)CC1)NCc1ccc(F)cc1` [Example 9, N-(4-fluorobenzyl)-2-(1-(4-(trifluoromethoxy)phenylsulfonyl)piperidin-4-ylidene)Acetamide], the IC50 amounted to 0.115 µM.
Then `CN(Cc1ccc(F)cc1)C(=O)C=C1CCN(S(=O)(=O)c2ccc(OC(F)(F)F)cc2)CC1` [Example 10, N-(4-fluorobenzyl)-N-methyl-2-(1-(4-(trifluoromethoxy)phenylsulfonyl)piperidin-4-ylidene)Acetamide], with 0.161 µM; and `N#Cc1ccc(CNC(=O)C=C2CCN(S(=O)(=O)c3ccc(OC(F)(F)F)cc3)CC2)cc1` [Example 11, N-(4-cyanobenzyl)-2-(1-(4-(trifluoromethoxy)phenylsulfonyl)piperidin-4-ylidene)Acetamide], with 0.56 µM; and `O=C(C=C1CCN(S(=O)(=O)c2ccc(OC(F)(F)F)cc2)CC1)NC1(c2ccc(F)cc2)CC1` [Example 12, N-(1-(4-fluorophenyl)cyclopropyl)-2-(1-(4-(trifluoromethoxy)phenylsulfonyl)piperidin-4-ylidene)Acetamide], with 0.361 µM.
Consider `O=C(C=C1CCN(S(=O)(=O)c2ccc(OC(F)(F)F)cc2)CC1)NCCC1CC1` [Example 13, N-(2-cyclopropylethyl)-2-(1-(4-(trifluoromethoxy)phenylsulfonyl)piperidin-4-ylidene)Acetamide], for which the IC50 is 0.248 µM.
Then `CC(C)OCCNC(=O)C=C1CCN(S(=O)(=O)c2ccc(OC(F)(F)F)cc2)CC1` [Example 15, N-(2-isopropoxyethyl)-2-(1-(4-(trifluoromethoxy)phenylsulfonyl)piperidin-4-ylidene)Acetamide], with 0.718 µM; and `COC(=O)C(NC(=O)C=C1CCN(S(=O)(=O)c2ccc(OC(F)(F)F)cc2)CC1)c1ccc(F)cc1` (centres unmarked) [Example 19, methyl 2-(4-fluorophenyl)-2-(2-(1-(4-(trifluoromethoxy)phenylsulfonyl)piperidin-4-ylidene)acetamido)Acetate], with 0.865 µM; and `O=C(C=C1CCN(S(=O)(=O)c2ccc(OC(F)(F)F)cc2)CC1)NC(CO)c1ccc(F)cc1` (centres unmarked) [Example 20, N-(1-(4-fluorophenyl)-2-hydroxyethyl)-2-(1-(4-(trifluoromethoxy)phenylsulfonyl)piperidin-4-ylidene)acetamide], with 0.822 µM.
Regarding `O=C(C=C1CCN(S(=O)(=O)c2cccc(C(F)(F)F)c2)CC1)NCC1CC1` [Example 22, N-(cyclopropylmethyl)-2-(1-(3-(trifluoromethyl)phenylsulfonyl)piperidin-4-ylidene)acetamide], the IC50 is 0.829 µM.
For `CC(C)(c1cccc(C(F)(F)F)c1)N1CCC(=CC(=O)NCC2CC2)CC1` [Example 31, N-(cyclopropylmethyl)-2-(1-(2-(3-(trifluoromethyl)phenyl)propan-2-yl)piperidin-4-ylidene)acetamide], the IC50 was 0.681 µM.
As for `COC(C(=O)NCC1CC1)=C1CCN(S(=O)(=O)c2ccc(OC(F)(F)F)cc2)CC1` [Example 32, N-(cyclopropylmethyl)-2-methoxy-2-(1-(4-(trifluoromethoxy)phenylsulfonyl)piperidin-4-ylidene)acetamide], the 50% inhibitory concentration (IC50) amounted to 0.912 µM.
On to `CO/C(=C\C1CCN(S(=O)(=O)c2ccc(OC(F)(F)F)cc2)CC1)C(=O)NC1CC1` [Example 37, (Z)—N-cyclopropyl-2-methoxy-3-(1-(4-(trifluoromethoxy)phenylsulfonyl)piperidin-4-yl)acrylamide], for which the IC50 came to 0.555 µM.
Then `CO/C(=C/C1CCN(S(=O)(=O)c2ccc(OC(F)(F)F)cc2)CC1)C(=O)NC1CC1` [Example 38, (E)-N-cyclopropyl-2-methoxy-3-(1-(4-(trifluoromethoxy)phenylsulfonyl)piperidin-4-yl)acrylamide], with 0.832 µM; and `O=C(/C=C1\CCCN(S(=O)(=O)c2ccc(OC(F)(F)F)cc2)C1)NCC1CC1` [Example 40, (E)-N-(cyclopropylmethyl)-2-(1-(4-(trifluoromethoxy)phenylsulfonyl)piperidin-3-ylidene)acetamide], with 0.695 µM.
For the compound `O=C(/C=C1\CCCN(S(=O)(=O)c2ccc(OC(F)(F)F)cc2)C1)NC1CC1` [Example 41, (E)-N-cyclopropyl-2-(1-(4-(trifluoromethoxy)phenylsulfonyl)piperidin-3-ylidene)acetamide], the IC50 is 0.99 µM.
Then `CO/C(=C\C1CN(S(=O)(=O)c2ccc(OC(F)(F)F)cc2)CCO1)C(=O)NC1CC1` (centres unmarked) [Example 44, (Z)—N-cyclopropyl-2-methoxy-3-(4-(4-(trifluoromethoxy)phenylsulfonyl)morpholin-2-yl)acrylamide], with 0.857 µM.
